How the values were obtained:
Type in all cases: in vivo, mouse
[1] = system: diet-induced obese mice; assay: EOS in drinking water (3 g/L) in obese mice: glucose homeostasis, body mass
Description: In a separate set of studies, an ITT was performed in obese mice to establish insulin resistance. Subsequently, EOS was provided ad libitum in the water (3 g/L) for 4 days. An OGTT and ITT were performed on days 3 and 4 of treatment, respectively. The water was then removed, and an ITT was performed 2 weeks later to establish the timing of restoration of insulin resistance after drug removal.
(§1) Oral glucose (2.5 g/kg; 0.1 mL/10 g body weight; Chem-Impex Int'l Inc., Wood Dale, Ill.) was given to 4 hour fasted individually housed mice. All glucose tolerance tests began at […] and glucose was measured in whole blood, collected from the tail vein, by glucometer (Manufacture #D2ASCCONKIT, Bayer, Leverkusen, Germany) at 0, 15, 30, 60, 90, and 120 minutes after glucose gavage. Blood for serum insulin (oral glucose stimulated insulin secretion; OGSIS) and glucose determination was collected from the tail vein 15 minutes following glucose administration.
(§2) Intraperitoneal insulin (0.5 U/kg; 0.1 mL/10 g body weight; Sigma Aldrich, St. Louis, Mo.) was given to 4 hour fasted individually housed mice. All insulin tolerance tests began at […] and glucose was measured in whole blood, collected from the tail vein, by glucometer (Manufacture #D2ASCCONKIT, Bayer, Leverkusen, Germany) at 0, 30, 60, 90, and 120 minutes after insulin injection.

[2] = system: lean mice; assay: GABA-T inhibitors (8 mg/day oral gavage) in lean mice: glucose homeostasis
Description: (§3) All animal studies were conducted using male wildtype C57BL/6J mice purchased from Jackson Laboratories or bred in-house (Bar Harbor, Me.). Mice were kept on a 14-hour light/10-hour dark schedule and housed 3-5 mice per cage until 1 week prior to study initiation, at which point animals were individually housed. Studies were conducted in lean chow fed mice (7013 NIH-31, Teklad WI, 3.1 kcal/g, 18% kcal from fat, 59% kcal from carbohydrate, 23% kcal from protein) at 12-16 weeks of age. Studies in diet-induced obese mice dosed intraperitoneally with GABA transaminase inhibitors, mice treated with ethanolamine-O-sulfate in their drinking water, and mice treated with GABA-T targeted or scramble control antisense oligonucleotides (ASO) were performed after 8-10 weeks on a high fat diet (TD 06414, Teklad WI, 5.1 kcal/g, 60.3% kcal from fat, 21.3% kcal from carbohydrate, 18.4% kcal from protein; 20-26 weeks of age). For ASO studies, mice were stratified by body weight and assigned to an injection treatment (control or GABA-T). Studies in obese vagotomy and sham mice were performed after 9 weeks of high fat diet feeding. Unless fasted, mice had ad libitum access to food and water. All studies were approved by The University of Arizona Institutional Animal Care and Use Committee.
(§4) Wildtype lean and obese mice were randomly divided into treatment groups and dosed daily with 8 mg of ethanolamine-O-sulfate (EOS; Sigma-Aldrich, St. Louis, Mo.), vigabatrin (United States Pharmacopeia, Rockville, Md.) or PBS. Obese sham and vagotomy mice were dosed daily with 8 mg of EOS. In all cases, basal bleeds were taken prior to initiation of an ITT. Lean mice received treatment by oral gavage (0.3 mL/mouse) while obese mice were treated by intraperitoneal injection (0.3 mL/mouse). Pre-treatment studies were conducted in the week immediately prior to beginning drug administration. Daily doses took place at 9 am each day and oral glucose tolerance tests (OGTT) and insulin tolerance tests (ITT) were performed on the third and fourth days of treatment in lean mice, respectively. In wildtype obese mice, OGTT and ITT were performed on the fourth day of treatment in separate cohorts. On the fifth day of treatment, 2DG clearance studies were performed. In sham/vagotomy mice, OGTT and ITT were performed on the fourth and fifth day of treatment, respectively. After a 2-week washout period without treatment injection, a basal bleed and bleed 15 minutes after an oral glucose gavage ([…]) to determine oral glucose stimulated insulin secretion were performed.
as §1, §2
(§5) Within 2 hours of collection, blood was left to clot at room temperature for 20 minutes. Thereafter, the blood was centrifuged at 3,000×g for 30 minutes at 4° C. and serum was collected. Serum was stored at −80° C. until metabolite and hormone analyses. A colorimetric assay was used to analyze serum glucose (Cat. #G7519, Pointe Scientific Inc., Canton Mich.). Serum insulin was analyzed by enzyme-linked immunosorbent assay (ELISA; Cat. #80-INSMSU-E01,E10, Alpco, Salem, N.H.). […]

[3] = system: high fat diet-induced obese mice; assay: GABA-T inhibitors (8 mg/day IP) in HFD-induced obese mice: body weight, serum insulin/glucose/glucagon, OGTT, ITT
Description: as §3, §4, §1, §2, §5

[4] = 8 mg/day IP, four days, relative to pre-treatment

NCCOS(=O)(=O)O [EOS, ethanolamine-O-sulfate]
response after withdrawal ([1]; 2 weeks without EOS in the drinking water): washed out | body mass ([1]; diet-induced obese mice, 3 g/L in drinking water, 7 weeks): dramatically decreased | measures of glucose homeostasis ([1]; obese mice, 3 g/L in drinking water, 4 days): similarly improved | serum glucose [2]: decreased | glucose tolerance ([2]; 8 mg/day): no effect | insulin sensitivity ([2]; 8 mg/day): no effect | serum insulin concentrations ([2]; 8 mg/day): no effect | glucose homeostasis ([2]; acute): does not alter | glucose:insulin ratio [3, 4]: increased | serum glucose [3, 4]: decreased | serum insulin [3, 4]: decreased | body weight ([3]; 8 mg/day IP, through 5 days, vs saline injected mice): remained similar | serum glucagon ([3]; 5 days, relative to control mice): decreased | glucose stimulated serum insulin ([3]; treatment day 4, relative to pre-treatment): tended to be decreased | glucose stimulated serum insulin after washout ([3]; two-weeks washout): markedly increased | serum insulin and glucose:insulin ratio after washout ([3]; two-weeks washout): return of serum insulin and the glucose:insulin ratio to pre-treatment levels | insulin sensitivity assessed by insulin tolerance test (ITT) ([3]; within 4 days of initiating treatment): improved
